Results published in PubChem BioAssay AID180 (DTP/NCI, 2004).
Several values for one entry are separate records, joined by “and”; a condition that tells them apart may be missing. Equal entries are not always repeated.

System: BDF1 mice, Adenocarcinoma 755 s.c., tumor weight T/C
Experiment: NCI In Vivo Anticancer Drug Screen. Data for tumor model Adenocarcinoma 755 (subcutaneous) in B6D2F1 (BDF1) mice
Settings: endpoint: mean tumor weight, schedule: Q01DX011 (ip), higher = larger tumour
In short: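 Values express treated (T) relative to vehicle-dosed control (C) animals, based on survival or tumour size measured after compound treatment of mice bearing a transplanted tumour.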

`CCOC(=O)Sc1ncnc2nc[nH]c12` was tested, and the T/C (dose: 0.21 mg/kg/injection, vehicle: carboxymethylcellulose (CMC)) was 87 % of control, the T/C (dose: 0.42 mg/kg/injection, vehicle: carboxymethylcellulose (CMC)) was 41 % of control and the T/C (dose: 0.85 mg/kg/injection, vehicle: carboxymethylcellulose (CMC)) was 50 % of control. For the same compound, the T/C (dose: 1.75 mg/kg/injection, vehicle: carboxymethylcellulose (CMC)) was 3 % of control and 7 % of control and 12 % of control, the T/C (dose: 3.5 mg/kg/injection, vehicle: carboxymethylcellulose (CMC)) was 4 % of control and the T/C (dose: 7.0 mg/kg/injection, vehicle: carboxymethylcellulose (CMC)) was 1 % of control and 5 % of control. For the same compound, the T/C (dose: 14.0 mg/kg/injection, vehicle: carboxymethylcellulose (CMC)) was 2 % of control and 8 % of control, the T/C (dose: 28.0 mg/kg/injection, vehicle: carboxymethylcellulose (CMC)) was 8 % of control and the T/C (dose: 56.0 mg/kg/injection, vehicle: carboxymethylcellulose (CMC)) was 8 % of control. The T/C (dose: 112.0 mg/kg/injection, vehicle: carboxymethylcellulose (CMC)) was 7 % of control.

For `CN1CC[C@]23c4c5ccc(O)c4O[C@H]2C(=O)CC[C@@]3(O)[C@H]1C5`, the T/C (dose: 4.5 mg/kg/injection, vehicle: methylcellulose (MC)) was 61 % of control and 73 % of control and 74 % of control.

With `Nc1nc(SCc2ccccc2)c2ncn(C3OC(CO)C(O)C3O)c2n1` (stereo not drawn) the T/C (dose: 25.0 mg/kg/injection, vehicle: methylcellulose (MC)) was 10 % of control, the T/C (dose: 50.0 mg/kg/injection, vehicle: methylcellulose (MC)) was 7 % of control and the T/C (dose: 75.0 mg/kg/injection, vehicle: methylcellulose (MC)) was 8 % of control. The T/C (dose: 100.0 mg/kg/injection, vehicle: methylcellulose (MC)) was 6 % of control.

In the case of `COC1C(OC(N)=O)C(O)C(Oc2ccc3c(O)c(NC(=O)c4ccc(O)c(CC=C(C)C)c4)c(=O)oc3c2C)OC1(C)C` (stereo not drawn), the T/C (dose: 50.0 mg/kg/injection, vehicle: saline) is reported as 78 % of control, the T/C (dose: 100.0 mg/kg/injection, vehicle: saline) is reported as 42 % of control and the T/C (dose: 200.0 mg/kg/injection, vehicle: saline) is reported as 60 % of control.
